Source: PubChem BioAssay (NCI)
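Dose response: 5 concentrations. Exposure: 48 h. Format: 96-well plates. Endpoint: linear interpolation; highest concentration if not reached. Here, GI50 denotes the concentration required for 50% inhibition of growth. TGI marks complete inhibition of growth.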

Experiments:
Assay in all cases: NCI-60 cell line screen, 48 h
UACC-62 melanoma = tested on: UACC-62 melanoma
COLO 205 colon = tested on: COLO 205 colon
SK-MEL-2 melanoma = tested on: SK-MEL-2 melanoma
SF-268 CNS = tested on: SF-268 CNS
RPMI-8226 leukemia = tested on: RPMI-8226 leukemia
U251 CNS = tested on: U251 CNS
MOLT-4 leukemia = tested on: MOLT-4 leukemia
786-0 renal = tested on: 786-0 renal
NCI/ADR-RES ovarian = tested on: NCI/ADR-RES ovarian
M14 melanoma = tested on: M14 melanoma
OVCAR-5 ovarian = tested on: OVCAR-5 ovarian
PC-3 prostate = tested on: PC-3 prostate
OVCAR-3 ovarian = tested on: OVCAR-3 ovarian
SN12C renal = tested on: SN12C renal
HT29 colon = tested on: HT29 colon
SR leukemia = tested on: SR leukemia
OVCAR-8 ovarian = tested on: OVCAR-8 ovarian
SNB-19 CNS = tested on: SNB-19 CNS
A498 renal = tested on: A498 renal
RXF 393 renal = tested on: RXF 393 renal
EKVX NSCLC = tested on: EKVX NSCLC
SK-MEL-28 melanoma = tested on: SK-MEL-28 melanoma
HOP-62 NSCLC = tested on: HOP-62 NSCLC
TK-10 renal = tested on: TK-10 renal
SK-OV-3 ovarian = tested on: SK-OV-3 ovarian
SK-MEL-5 melanoma = tested on: SK-MEL-5 melanoma
HL-60(TB) leukemia = tested on: HL-60(TB) leukemia
SW-620 colon = tested on: SW-620 colon
MDA-MB-231 breast = tested on: MDA-MB-231 breast
CAKI-1 renal = tested on: CAKI-1 renal
UACC-257 melanoma = tested on: UACC-257 melanoma
HS 578T breast = tested on: HS 578T breast
K-562 leukemia = tested on: K-562 leukemia
LOX IMVI melanoma = tested on: LOX IMVI melanoma
NCI-H23 lung = tested on: NCI-H23 lung
A549 NSCLC = tested on: A549 NSCLC
DU-145 prostate = tested on: DU-145 prostate
NCI-H522 lung = tested on: NCI-H522 lung
IGROV1 ovarian = tested on: IGROV1 ovarian
SF-295 CNS = tested on: SF-295 CNS
HOP-92 NSCLC = tested on: HOP-92 NSCLC
MCF7 breast = tested on: MCF7 breast
KM12 colon = tested on: KM12 colon
OVCAR-4 ovarian = tested on: OVCAR-4 ovarian
HCT-116 colon = tested on: HCT-116 colon
T-47D breast = tested on: T-47D breast
NCI-H460 lung = tested on: NCI-H460 lung
MDA-MB-435 = tested on: MDA-MB-435
CCRF-CEM leukemia = tested on: CCRF-CEM leukemia
SF-539 CNS = tested on: SF-539 CNS
UO-31 renal = tested on: UO-31 renal
SNB-75 CNS = tested on: SNB-75 CNS
MALME-3M melanoma = tested on: MALME-3M melanoma
ACHN renal = tested on: ACHN renal
HCT-15 colon = tested on: HCT-15 colon
BT-549 breast = tested on: BT-549 breast

Structure (SMILES): COc1ccc(C2C3=C(NC(=O)C2C#N)c2ccc4ccccc4c2OCC3)cc1 (configuration not stated)
- GI50 (UACC-62 melanoma): 19 µM
- TGI (UACC-62 melanoma): 45.5 µM
- GI50 (COLO 205 colon): > 100 µM
- TGI (COLO 205 colon): > 100 µM
- GI50 (SK-MEL-2 melanoma): > 100 µM
- TGI (SK-MEL-2 melanoma): > 100 µM
- GI50 (SF-268 CNS): 23.3 µM
- TGI (SF-268 CNS): 76.2 µM
- GI50 (RPMI-8226 leukemia): > 100 µM
- TGI (RPMI-8226 leukemia): > 100 µM
- GI50 (U251 CNS): 23.6 µM
- TGI (U251 CNS): 54.2 µM
- GI50 (MOLT-4 leukemia): > 100 µM
- TGI (MOLT-4 leukemia): > 100 µM
- GI50 (786-0 renal): 30.2 µM
- TGI (786-0 renal): 86.4 µM
- GI50 (NCI/ADR-RES ovarian): 31.3 µM
- TGI (NCI/ADR-RES ovarian): > 100 µM
- GI50 (M14 melanoma): 90.2 µM
- TGI (M14 melanoma): > 100 µM
- GI50 (OVCAR-5 ovarian): > 100 µM
- TGI (OVCAR-5 ovarian): > 100 µM
- GI50 (PC-3 prostate): 86.9 µM
- TGI (PC-3 prostate): > 100 µM
- GI50 (OVCAR-3 ovarian): 70.4 µM
- TGI (OVCAR-3 ovarian): > 100 µM
- GI50 (SN12C renal): 23.9 µM
- TGI (SN12C renal): 56.5 µM
- GI50 (HT29 colon): > 100 µM
- TGI (HT29 colon): > 100 µM
- GI50 (SR leukemia): > 100 µM
- TGI (SR leukemia): > 100 µM
- GI50 (OVCAR-8 ovarian): 21.4 µM
- TGI (OVCAR-8 ovarian): 45.3 µM
- GI50 (SNB-19 CNS): 58.8 µM
- TGI (SNB-19 CNS): > 100 µM
- GI50 (A498 renal): 10.6 µM
- TGI (A498 renal): 64.6 µM
- GI50 (RXF 393 renal): 16.3 µM
- TGI (RXF 393 renal): 48.9 µM
- GI50 (EKVX NSCLC): 15.8 µM
- TGI (EKVX NSCLC): 50.1 µM
- GI50 (SK-MEL-28 melanoma): 42.3 µM
- TGI (SK-MEL-28 melanoma): > 100 µM
- GI50 (HOP-62 NSCLC): 28.2 µM
- TGI (HOP-62 NSCLC): 86.3 µM
- GI50 (TK-10 renal): 29.5 µM
- TGI (TK-10 renal): 76.8 µM
- GI50 (SK-OV-3 ovarian): 20 µM
- TGI (SK-OV-3 ovarian): 47.1 µM
- GI50 (SK-MEL-5 melanoma): > 100 µM
- TGI (SK-MEL-5 melanoma): > 100 µM
- GI50 (HL-60(TB) leukemia): 65.8 µM
- TGI (HL-60(TB) leukemia): > 100 µM
- GI50 (SW-620 colon): > 100 µM
- TGI (SW-620 colon): > 100 µM
- GI50 (MDA-MB-231 breast): 17.9 µM
- TGI (MDA-MB-231 breast): 43.2 µM
- GI50 (CAKI-1 renal): 33.8 µM
- TGI (CAKI-1 renal): 70.3 µM
- GI50 (UACC-257 melanoma): 36.5 µM
- TGI (UACC-257 melanoma): 82.8 µM
- GI50 (HS 578T breast): 22.6 µM
- TGI (HS 578T breast): 56.6 µM
- GI50 (K-562 leukemia): > 100 µM
- TGI (K-562 leukemia): > 100 µM
- GI50 (LOX IMVI melanoma): 18.6 µM
- TGI (LOX IMVI melanoma): 37.5 µM
- GI50 (NCI-H23 lung): 87.1 µM
- TGI (NCI-H23 lung): > 100 µM
- GI50 (A549 NSCLC): 38.9 µM
- TGI (A549 NSCLC): > 100 µM
- GI50 (DU-145 prostate): 31.4 µM
- TGI (DU-145 prostate): > 100 µM
- GI50 (NCI-H522 lung): 74.5 µM
- TGI (NCI-H522 lung): > 100 µM
- GI50 (IGROV1 ovarian): > 100 µM
- TGI (IGROV1 ovarian): > 100 µM
- GI50 (SF-295 CNS): 27.4 µM
- TGI (SF-295 CNS): > 100 µM
- GI50 (HOP-92 NSCLC): 11.4 µM
- TGI (HOP-92 NSCLC): 43.4 µM
- GI50 (MCF7 breast): > 100 µM
- TGI (MCF7 breast): > 100 µM
- GI50 (KM12 colon): > 100 µM
- TGI (KM12 colon): > 100 µM
- GI50 (OVCAR-4 ovarian): > 100 µM
- TGI (OVCAR-4 ovarian): > 100 µM
- GI50 (HCT-116 colon): 35.8 µM
- TGI (HCT-116 colon): > 100 µM
- GI50 (T-47D breast): > 100 µM
- TGI (T-47D breast): > 100 µM
- GI50 (NCI-H460 lung): 66.2 µM
- TGI (NCI-H460 lung): > 100 µM
- GI50 (MDA-MB-435): > 100 µM
- TGI (MDA-MB-435): > 100 µM
- GI50 (CCRF-CEM leukemia): > 100 µM
- TGI (CCRF-CEM leukemia): > 100 µM
- GI50 (SF-539 CNS): 12.9 µM
- TGI (SF-539 CNS): 28 µM
- GI50 (UO-31 renal): 64.1 µM
- TGI (UO-31 renal): > 100 µM
- GI50 (SNB-75 CNS): 21.9 µM
- TGI (SNB-75 CNS): 69.1 µM
- GI50 (MALME-3M melanoma): 34.9 µM
- TGI (MALME-3M melanoma): 77.3 µM
- GI50 (ACHN renal): 21.9 µM
- TGI (ACHN renal): 59.5 µM
- GI50 (HCT-15 colon): > 100 µM
- TGI (HCT-15 colon): > 100 µM
- GI50 (BT-549 breast): 20.4 µM
- TGI (BT-549 breast): 60.6 µM
